Assay results as given in US10131652B2, “Pyrimidinyloxy benzene derivatives as herbicides” (E. I. DU PONT DE NEMOURS AND COMPANY, priority 2014, dated 2018).

Key:
Assay in all cases: Test D pre-/postemergence plant response
Format in all cases: in vivo
[1] = tested on: ragweed (common ragweed, Ambrosia elatior); details: Ambrosia artemisiifolia, pre-emergence, Preemergence
Summary of the method: (§1)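 Two application timings were run together: preemergence onto seeded loam–sand pots, and postemergence onto 1- to 4-leaf plants (2 to 18 cm) in peat/vermiculite medium with starter nutrients. Formulation was a non-phytotoxic solvent with surfactant. Ratings, 0 to 100, were made visually versus controls after 13 to 15 greenhouse days.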

[2] = tested on: velvetleaf (Abutilon theophrasti); details: Abutilon theophrasti, pre-emergence, Preemergence
Summary of the method: as §1

[3] = tested on: johnsongrass (Sorghum halepense); details: Sorghum halepense, pre-emergence, Preemergence
Summary of the method: as §1

[4] = tested on: blackgrass (Alopecurus myosuroides); details: Alopecurus myosuroides, pre-emergence, Preemergence
Summary of the method: as §1

[5] = tested on: giant foxtail (Setaria faberii); details: Setaria faberi, pre-emergence, Preemergence
Summary of the method: as §1

[6] = tested on: yellow nutsedge (Cyperus esculentus); details: Cyperus, pre-emergence, Preemergence
Summary of the method: as §1

[7] = tested on: Italian ryegrass (Lolium multiflorum); details: Lolium multiflorum, pre-emergence, Preemergence
Summary of the method: as §1

[8] = tested on: barnyardgrass (Echinochloa crus-galli); details: Echinochloa crus-galli, pre-emergence, Preemergence
Summary of the method: as §1

[9] = tested on: large (Lg) crabgrass (Digitaria sanguinalis); details: Digitaria sanguinalis, pre-emergence, Preemergence
Summary of the method: as §1

Which pest or weed control at 125 g/ha ([1]; 125 g ai/ha, read-out: Plant response rating (scale 0 to 100), Ragweed) does the source give for `N#Cc1cccc(Oc2ncc(Cl)cn2)c1-c1cc(C(F)(F)F)ccn1` [Compound 158, 5-chloro-2-[3-cyano-2-[4-(trifluoromethyl)-2-pyridinyl]phenoxy]pyrimidine] here?
Its pest or weed control at 125 g/ha is 50%.

What about the pest or weed control at 16 g/ha ([1]; 16 g ai/ha, scale 0 to 100 (0 no effect, 100 complete control), read-out: Plant response rating, Ragweed) of the same compound?
Its pest or weed control at 16 g/ha is 80%.

What about the pest or weed control at 31 g/ha ([1]; 31 g ai/ha, scale 0 to 100 (0 no effect, 100 complete control), read-out: Plant response rating, Ragweed) of the same compound?
Its pest or weed control at 31 g/ha is 60%.

And the pest or weed control at 62 g/ha ([1]; 62 g ai/ha, scale 0 to 100 (0 no effect, 100 complete control), read-out: Plant response rating, Ragweed)?
The pest or weed control at 62 g/ha was 70%.

And the pest or weed control at 125 g/ha ([2]; 125 g ai/ha, read-out: Plant response rating (scale 0 to 100), Velvetleaf)?
The pest or weed control at 125 g/ha was 70%.

And the pest or weed control at 16 g/ha ([2]; 16 g ai/ha, scale 0 to 100 (0 no effect, 100 complete control), read-out: Plant response rating, Velvetleaf)?
Its pest or weed control at 16 g/ha is 35%.

What about the pest or weed control at 31 g/ha ([2]; 31 g ai/ha, scale 0 to 100 (0 no effect, 100 complete control), read-out: Plant response rating, Velvetleaf) of the same compound?
The pest or weed control at 31 g/ha was 25%.

And the pest or weed control at 62 g/ha ([2]; 62 g ai/ha, scale 0 to 100 (0 no effect, 100 complete control), read-out: Plant response rating, Velvetleaf)?
Its pest or weed control at 62 g/ha is 40%.

And the pest or weed control at 125 g/ha ([3]; 125 g ai/ha, read-out: Plant response rating (scale 0 to 100), Johnsongrass)?
Its pest or weed control at 125 g/ha is 40%.

What about the pest or weed control at 16 g/ha ([3]; 16 g ai/ha, scale 0 to 100 (0 no effect, 100 complete control), read-out: Plant response rating, Johnsongrass) of the same compound?
The pest or weed control at 16 g/ha was 0%.

What about the pest or weed control at 31 g/ha ([3]; 31 g ai/ha, scale 0 to 100 (0 no effect, 100 complete control), read-out: Plant response rating, Johnsongrass) of the same compound?
The pest or weed control at 31 g/ha was 0%.

What about the pest or weed control at 62 g/ha ([3]; 62 g ai/ha, scale 0 to 100 (0 no effect, 100 complete control), read-out: Plant response rating, Johnsongrass) of the same compound?
The pest or weed control at 62 g/ha was 10%.

What about the pest or weed control at 125 g/ha ([4]; 125 g ai/ha, read-out: Plant response rating (scale 0 to 100), Blackgrass) of the same compound?
The pest or weed control at 125 g/ha was 90%.

And the pest or weed control at 16 g/ha ([4]; 16 g ai/ha, scale 0 to 100 (0 no effect, 100 complete control), read-out: Plant response rating, Blackgrass)?
The pest or weed control at 16 g/ha was 0%.

And the pest or weed control at 31 g/ha ([4]; 31 g ai/ha, scale 0 to 100 (0 no effect, 100 complete control), read-out: Plant response rating, Blackgrass)?
Its pest or weed control at 31 g/ha is 15%.

What about the pest or weed control at 62 g/ha ([4]; 62 g ai/ha, scale 0 to 100 (0 no effect, 100 complete control), read-out: Plant response rating, Blackgrass) of the same compound?
Its pest or weed control at 62 g/ha is 50%.

What about the pest or weed control at 125 g/ha ([5]; 125 g ai/ha, read-out: Plant response rating (scale 0 to 100), Foxtail, Giant) of the same compound?
The pest or weed control at 125 g/ha was 100%.

And the pest or weed control at 16 g/ha ([5]; 16 g ai/ha, scale 0 to 100 (0 no effect, 100 complete control), read-out: Plant response rating, Foxtail, Giant)?
Its pest or weed control at 16 g/ha is 5%.

What about the pest or weed control at 31 g/ha ([5]; 31 g ai/ha, scale 0 to 100 (0 no effect, 100 complete control), read-out: Plant response rating, Foxtail, Giant) of the same compound?
Its pest or weed control at 31 g/ha is 55%.

What about the pest or weed control at 62 g/ha ([5]; 62 g ai/ha, scale 0 to 100 (0 no effect, 100 complete control), read-out: Plant response rating, Foxtail, Giant) of the same compound?
The pest or weed control at 62 g/ha was 85%.

What about the pest or weed control at 125 g/ha ([6]; 125 g ai/ha, read-out: Plant response rating (scale 0 to 100), Nutsedge, Yellow) of the same compound?
The pest or weed control at 125 g/ha was 5%.

What about the pest or weed control at 16 g/ha ([6]; 16 g ai/ha, scale 0 to 100 (0 no effect, 100 complete control), read-out: Plant response rating, Nutsedge, Yellow) of the same compound?
The pest or weed control at 16 g/ha was 0%.

What about the pest or weed control at 31 g/ha ([6]; 31 g ai/ha, scale 0 to 100 (0 no effect, 100 complete control), read-out: Plant response rating, Nutsedge, Yellow) of the same compound?
Its pest or weed control at 31 g/ha is 0%.

And the pest or weed control at 62 g/ha ([6]; 62 g ai/ha, scale 0 to 100 (0 no effect, 100 complete control), read-out: Plant response rating, Nutsedge, Yellow)?
The pest or weed control at 62 g/ha was 5%.

And the pest or weed control at 125 g/ha ([7]; 125 g ai/ha, read-out: Plant response rating (scale 0 to 100), Ryegrass, Italian)?
The pest or weed control at 125 g/ha was 20%.

What about the pest or weed control at 16 g/ha ([7]; 16 g ai/ha, scale 0 to 100 (0 no effect, 100 complete control), read-out: Plant response rating, Ryegrass, Italian) of the same compound?
Its pest or weed control at 16 g/ha is 0%.

And the pest or weed control at 31 g/ha ([7]; 31 g ai/ha, scale 0 to 100 (0 no effect, 100 complete control), read-out: Plant response rating, Ryegrass, Italian)?
The pest or weed control at 31 g/ha was 0%.

And the pest or weed control at 62 g/ha ([7]; 62 g ai/ha, scale 0 to 100 (0 no effect, 100 complete control), read-out: Plant response rating, Ryegrass, Italian)?
Its pest or weed control at 62 g/ha is 0%.

What about the pest or weed control at 125 g/ha ([8]; 125 g ai/ha, read-out: Plant response rating (scale 0 to 100), Barnyardgrass) of the same compound?
Its pest or weed control at 125 g/ha is 20%.

What about the pest or weed control at 16 g/ha ([8]; 16 g ai/ha, scale 0 to 100 (0 no effect, 100 complete control), read-out: Plant response rating, Barnyardgrass) of the same compound?
The pest or weed control at 16 g/ha was 0%.

What about the pest or weed control at 31 g/ha ([8]; 31 g ai/ha, scale 0 to 100 (0 no effect, 100 complete control), read-out: Plant response rating, Barnyardgrass) of the same compound?
Its pest or weed control at 31 g/ha is 5%.

And the pest or weed control at 62 g/ha ([8]; 62 g ai/ha, scale 0 to 100 (0 no effect, 100 complete control), read-out: Plant response rating, Barnyardgrass)?
Its pest or weed control at 62 g/ha is 35%.

What about the pest or weed control at 125 g/ha ([9]; 125 g ai/ha, read-out: Plant response rating (scale 0 to 100), Crabgrass, Large) of the same compound?
The pest or weed control at 125 g/ha was 100%.

What about the pest or weed control at 16 g/ha ([9]; 16 g ai/ha, scale 0 to 100 (0 no effect, 100 complete control), read-out: Plant response rating, Crabgrass, Large) of the same compound?
The pest or weed control at 16 g/ha was 25%.

What about the pest or weed control at 31 g/ha ([9]; 31 g ai/ha, scale 0 to 100 (0 no effect, 100 complete control), read-out: Plant response rating, Crabgrass, Large) of the same compound?
The pest or weed control at 31 g/ha was 90%.

And the pest or weed control at 62 g/ha ([9]; 62 g ai/ha, scale 0 to 100 (0 no effect, 100 complete control), read-out: Plant response rating, Crabgrass, Large)?
The pest or weed control at 62 g/ha was 85%.
